Measurements taken from ChEMBL document CHEMBL5523716, “Discovery of novel EGFR-PROTACs capable of degradation of multiple EGFR-mutated proteins” (Eur J Med Chem, 2024).

Key:
HCC827 [1] = test: Antiproliferative activity against human HCC827 cells harboring EGFR Del19 mutant assessed as inhibition of cell growth incubated for 48 to 72 hrs by CCK-8 assay; assay type: functional, cell-based
NCI-H1975 [2] = test: Antiproliferative activity against human NCI-H1975 cells harboring EGFR L858R/T790M double mutant assessed as inhibition of cell growth incubated for 48 to 72 hrs by CCK-8 assay; assay type: functional, cell-based
[3] = Antiproliferative activity against human H1975-TM cells harboring EGFR L858R/T790M/C797S mutant assessed as inhibition of cell growth incubated for 48 to 72 hrs by CCK-8 assay; assay type: functional, cell-based
A549 = test: Antiproliferative activity against human A549 cells harboring EGFR wild type assessed as inhibition of cell growth incubated for 48 to 72 hrs by CCK-8 assay; assay type: functional, cell-based
A-431 = test: Antiproliferative activity against human A-431 cells harboring EGFR wild type assessed as inhibition of cell growth incubated for 48 to 72 hrs by CCK-8 assay; assay type: functional, cell-based
NCI-H1975 [4] = test: Antitumor activity against human NCI-H1975 cells xenografted in BALB/c mouse assessed as tumor growth inhibition at 10 mg/kg,ip once daily for 22 days relative to control; assay type: functional; settings: NCI-H1975, 528 h, time 22 day, read-out: TGI
HCC827 [5] = test: Antitumor activity against human HCC827 cells xenografted in BALB/c mouse assessed as tumor growth inhibition at 5 mg/kg,ip once daily for 28 days relative to control; assay type: functional; settings: HCC827, 672 h, time 28 day, read-out: TGI
[6] = Antitumor activity against human H1975-TM cells xenografted in BALB/c mouse assessed as tumor growth inhibition at 10 mg/kg,ip once daily for 14 days relative to control; assay type: functional; settings: 336 h, time 14 day, read-out: TGI

Compound | IC50 (HCC827 [1]) [µM] | IC50 (NCI-H1975 [2]) [µM] | IC50 (A549) [µM] | IC50 (A-431) [µM] | IC50 [3] [µM] | inhibition in vivo at 10 mg/kg (NCI-H1975 [4]) [%] | inhibition in vivo at 5 mg/kg (HCC827 [5]) [%] | inhibition in vivo at 10 mg/kg [6] [%]
CCN(CC)C/C=C/C(=O)Nc1cc2c(Nc3ccc(F)c(Cl)c3)ncnc2cc1OCc1cn(CCCCC(=O)N[C@H](C(=O)N2C[C@H](O)C[C@H]2C(=O)N[C@H](C)c2ccc(-c3scnc3C)cc2)C(C)(C)C)nn1 | 0.039 | 7.46 | > 20 | > 20 | > 20 |  |  | 
Cc1ncsc1-c1ccc(CNC(=O)[C@@H]2C[C@@H](O)CN2C(=O)[C@@H](NC(=O)COCCOCCn2cc(CCCCCOc3cc4ncnc(Nc5ccc(F)c(Cl)c5)c4cc3NC(=O)/C=C/CN3CCCCC3)nn2)C(C)(C)C)cc1 | 0.004 | 1.93 | > 20 | > 20 | > 20 |  |  | 
Cc1ncsc1-c1ccc(CNC(=O)[C@@H]2C[C@@H](O)CN2C(=O)[C@@H](NC(=O)CCCCCCCCCCn2cc(COCCOCCOCCOc3cc4ncnc(Nc5ccc(F)c(Cl)c5)c4cc3NC(=O)/C=C/CN3CCCCC3)nn2)C(C)(C)C)cc1 | 0.015 | 2.36 | > 20 | 11.5 | > 20 |  |  | 
Cc1ncsc1-c1ccc(CNC(=O)[C@@H]2C[C@@H](O)CN2C(=O)[C@@H](NC(=O)CCCCCCCCCCn2cc(CCCCCOc3cc4ncnc(Nc5ccc(F)c(Cl)c5)c4cc3NC(=O)/C=C/CN3CCCCC3)nn2)C(C)(C)C)cc1 | 0.027 | > 20 | > 20 | > 20 | > 20 |  |  | 
COc1cc2ncnc(Nc3ccc(F)c(Cl)c3)c2cc1NC(=O)/C=C/CN1CCCCC1 [DACOMITINIB ANHYDROUS] | 0.007 | 0.7 | 0.49 | 1.96 | 7.01 | 67 | 90 | 
CCN(CC)C/C=C/C(=O)Nc1cc2c(Nc3ccc(F)c(Cl)c3)ncnc2cc1OCCCCCc1cn(CCCCCCCCCCC(=O)N[C@H](C(=O)N2C[C@H](O)C[C@H]2C(=O)NCc2ccc(-c3scnc3C)cc2)C(C)(C)C)nn1 | 0.01 | 3.08 | > 20 | > 20 | > 20 |  |  | 
CCN(CC)C/C=C/C(=O)Nc1cc2c(Nc3ccc(F)c(Cl)c3)ncnc2cc1OCCCCCc1cn(CCCCCCCCCCC(=O)N[C@H](C(=O)N2C[C@H](O)C[C@H]2C(=O)N[C@H](C)c2ccc(-c3scnc3C)cc2)C(C)(C)C)nn1 | 0.01 | 5.37 | > 20 | > 20 | > 20 |  |  | 
Cc1ncsc1-c1ccc(CNC(=O)[C@@H]2C[C@@H](O)CN2C(=O)[C@@H](NC(=O)CCCCCCCn2cc(CCCCCOc3cc4ncnc(Nc5ccc(F)c(Cl)c5)c4cc3NC(=O)/C=C/CN3CCCCC3)nn2)C(C)(C)C)cc1 | 0.053 | 5.82 | > 20 | > 20 | > 20 |  |  | 
Cc1ncsc1-c1ccc(CNC(=O)[C@@H]2C[C@@H](O)CN2C(=O)[C@@H](NC(=O)CCCCCCCCCn2cc(CCCCCOc3cc4ncnc(Nc5ccc(F)c(Cl)c5)c4cc3NC(=O)/C=C/CN3CCCCC3)nn2)C(C)(C)C)cc1 | 0.018 | 9.44 | 9.3 | > 20 | > 20 |  |  | 
Cc1ncsc1-c1ccc(CNC(=O)[C@@H]2C[C@@H](O)CN2C(=O)[C@@H](NC(=O)COCCOCCOCCn2cc(CCCCCOc3cc4ncnc(Nc5ccc(F)c(Cl)c5)c4cc3NC(=O)/C=C/CN3CCCCC3)nn2)C(C)(C)C)cc1 | 0.089 | 2.28 | > 20 | > 20 | > 20 |  |  | 
Cc1ncsc1-c1ccc(CNC(=O)[C@@H]2C[C@@H](O)CN2C(=O)[C@@H](NC(=O)CCCCCCCCCCn2cc(COc3cc4ncnc(Nc5ccc(F)c(Cl)c5)c4cc3NC(=O)/C=C/CN3CCOCC3)nn2)C(C)(C)C)cc1 | 0.019 | > 20 | > 20 | > 20 | > 20 |  |  | 
CCN(CC)C/C=C/C(=O)Nc1cc2c(Nc3ccc(F)c(Cl)c3)ncnc2cc1OCCCCCc1cn(CCOCCOCC(=O)N[C@H](C(=O)N2C[C@H](O)C[C@H]2C(=O)NCc2ccc(-c3scnc3C)cc2)C(C)(C)C)nn1 | 0.084 | 2.85 | > 20 | > 20 | > 20 |  |  | 
Cc1ncsc1-c1ccc(CNC(=O)[C@@H]2C[C@@H](O)CN2C(=O)[C@@H](NC(=O)CCCCCCCCCCn2cc(COc3cc4ncnc(Nc5ccc(F)c(Cl)c5)c4cc3NC(=O)/C=C/CN3CCN(C)CC3)nn2)C(C)(C)C)cc1 | 0.038 | 14.2 | > 20 | > 20 | > 20 |  |  | 
Cc1ncsc1-c1ccc(CNC(=O)[C@@H]2C[C@@H](O)CN2C(=O)[C@@H](NC(=O)CCCCCCCCCCn2cc(COc3cc4ncnc(Nc5ccc(F)c(Cl)c5)c4cc3NC(=O)/C=C/CN3CCCCC3)nn2)C(C)(C)C)cc1 | 0.006 | > 20 | > 20 | > 20 | > 20 |  |  | 
CCN(CC)C/C=C/C(=O)Nc1cc2c(Nc3ccc(F)c(Cl)c3)ncnc2cc1OCCCCCc1cn(CCCCCCCC(=O)N[C@H](C(=O)N2C[C@H](O)C[C@H]2C(=O)NCc2ccc(-c3scnc3C)cc2)C(C)(C)C)nn1 | 0.031 | 1.37 | > 20 | > 20 | > 20 |  |  | 

Continued by falling IC50 (HCC827 [1]), values first:

IC50 (HCC827 [1]) [µM] | IC50 (NCI-H1975 [2]) [µM] | IC50 (A549) [µM] | IC50 (A-431) [µM] | Compound | IC50 [3] [µM] | inhibition in vivo at 10 mg/kg (NCI-H1975 [4]) [%] | inhibition in vivo at 5 mg/kg (HCC827 [5]) [%] | inhibition in vivo at 10 mg/kg [6] [%]
0.169 | 14.3 | > 20 | > 20 | Cc1ncsc1-c1ccc(CNC(=O)[C@@H]2C[C@@H](O)CN2C(=O)[C@@H](NC(=O)COCCn2cc(CCCCCOc3cc4ncnc(Nc5ccc(F)c(Cl)c5)c4cc3NC(=O)/C=C/CN3CCCCC3)nn2)C(C)(C)C)cc1 | > 20 |  |  | 
0.059 | 3.5 | > 20 | > 20 | CCN(CC)C/C=C/C(=O)Nc1cc2c(Nc3ccc(F)c(Cl)c3)ncnc2cc1OCCCCCc1cn(CCCCC(=O)N[C@H](C(=O)N2C[C@H](O)C[C@H]2C(=O)NCc2ccc(-c3scnc3C)cc2)C(C)(C)C)nn1 | > 20 |  |  | 
0.054 | 1.86 | > 20 | > 20 | CCN(CC)C/C=C/C(=O)Nc1cc2c(Nc3ccc(F)c(Cl)c3)ncnc2cc1OCCCCCc1cn(CCCCC(=O)N[C@H](C(=O)N2C[C@H](O)C[C@H]2C(=O)N[C@H](C)c2ccc(-c3scnc3C)cc2)C(C)(C)C)nn1 | > 20 |  |  | 
0.05 | 4.96 | > 20 | > 20 | Cc1ncsc1-c1ccc(CNC(=O)[C@@H]2C[C@@H](O)CN2C(=O)[C@@H](NC(=O)CCCCn2cc(COCCOCCOCCOc3cc4ncnc(Nc5ccc(F)c(Cl)c5)c4cc3NC(=O)/C=C/CN3CCCCC3)nn2)C(C)(C)C)cc1 | > 20 |  |  | 
0.046 | 14.7 | > 20 | > 20 | Cc1ncsc1-c1ccc(CNC(=O)[C@@H]2C[C@@H](O)CN2C(=O)[C@@H](NC(=O)CCCCn2cc(CCCCCOc3cc4ncnc(Nc5ccc(F)c(Cl)c5)c4cc3NC(=O)/C=C/CN3CCCCC3)nn2)C(C)(C)C)cc1 | > 20 |  |  | 
0.043 | 2.55 | > 20 | 11.4 | Cc1ncsc1-c1ccc(CNC(=O)[C@@H]2C[C@@H](O)CN2C(=O)[C@@H](NC(=O)CCCCCCCn2cc(COCCOCCOCCOc3cc4ncnc(Nc5ccc(F)c(Cl)c5)c4cc3NC(=O)/C=C/CN3CCCCC3)nn2)C(C)(C)C)cc1 | > 20 |  |  | 
0.03 | 0.96 | > 20 | > 20 | CCN(CC)C/C=C/C(=O)Nc1cc2c(Nc3ccc(F)c(Cl)c3)ncnc2cc1OCCCCCc1cn(CCCCCCCC(=O)N[C@H](C(=O)N2C[C@H](O)C[C@H]2C(=O)N[C@H](C)c2ccc(-c3scnc3C)cc2)C(C)(C)C)nn1 | > 20 |  |  | 
0.011 | 1.48 | > 20 | > 20 | Cc1ncsc1-c1ccc(CNC(=O)[C@@H]2C[C@@H](O)CN2C(=O)[C@@H](NC(=O)CCCCCCCCCCn2cc(COc3cc4ncnc(Nc5ccc(F)c(Cl)c5)c4cc3NC(=O)/C=C/CN(C)C)nn2)C(C)(C)C)cc1 | > 20 |  |  | 
0.01 | 0.69 | > 20 | > 20 | CCN(CC)C/C=C/C(=O)Nc1cc2c(Nc3ccc(F)c(Cl)c3)ncnc2cc1OCc1cn(CCCCCCCCCCC(=O)N[C@H](C(=O)N2C[C@H](O)C[C@H]2C(=O)N[C@H](C)c2ccc(-c3scnc3C)cc2)C(C)(C)C)nn1 | > 20 |  |  | 
